Laboratory results from article PMC5947510 (2015).

The molecules below were run on pre-miR-27a (RNA, miRNA) GGGCUGAGGAGCAGGGCUUAGCUGCUUGUGAGCAGGGUCCACACCAAGUCGUGUUCACAGUGGCUAAGUUCCGCCCCCCAG (assay: fluorescence titration (bisbenzimidazole emission)). Conditions: 10 mM NaCl, 1 mM MgCl2; 10 mM sodium cacodylate, pH 7.5, 25 °C; compound 500 nM.

Row | Ka [M⁻¹] | SMILES
1 | 1.2e+07 | CN1CCN(c2ccc3nc(-c4ccc5nc(-c6ccc(OCCCCCCCCCCOCc7cn(C[C@H]8O[C@@H](O[C@@H]9[C@@H](O)[C@H](N)C[C@H](N)[C@H]9O[C@H]9O[C@H](CN)[C@@H](O)[C@H](O)[C@H]9N)[C@H](O)[C@@H]8O[C@H]8O[C@@H](CN)[C@@H](O)[C@H](O)[C@H]8N)nn7)cc6)[nH]c5c4)[nH]c3c2)CC1
2 | 2.5e+07 | CN1CCN(c2ccc3nc(-c4ccc5nc(-c6ccc(OCCCCCCCCOCc7cn(C[C@H]8O[C@@H](O[C@@H]9[C@@H](O)[C@H](N)C[C@H](N)[C@H]9O[C@H]9O[C@H](CN)[C@@H](O)[C@H](O)[C@H]9N)[C@H](O)[C@@H]8O[C@H]8O[C@@H](CN)[C@@H](O)[C@H](O)[C@H]8N)nn7)cc6)[nH]c5c4)[nH]c3c2)CC1
3 | 1.2e+08 | CN1CCN(c2ccc3nc(-c4ccc5nc(-c6ccc(OCCCCCCOCc7cn(C[C@H]8O[C@@H](O[C@@H]9[C@@H](O)[C@H](N)C[C@H](N)[C@H]9O[C@H]9O[C@H](CN)[C@@H](O)[C@H](O)[C@H]9N)[C@H](O)[C@@H]8O[C@H]8O[C@@H](CN)[C@@H](O)[C@H](O)[C@H]8N)nn7)cc6)[nH]c5c4)[nH]c3c2)CC1

More lines, now with the values behind:

Row | SMILES | Ka [M⁻¹]
4 | CN1CCN(c2ccc3nc(-c4ccc5nc(-c6ccc(O)cc6)[nH]c5c4)[nH]c3c2)CC1 | 3.4e+06
5 | CN1CCN(c2ccc3nc(-c4ccc5nc(-c6ccc(OCCCCCCCCCc7cn(C[C@H]8O[C@@H](O[C@@H]9[C@@H](O)[C@H](N)C[C@H](N)[C@H]9O[C@H]9O[C@H](CN)[C@@H](O)[C@H](O)[C@H]9N)[C@H](O)[C@@H]8O[C@H]8O[C@@H](CN)[C@@H](O)[C@H](O)[C@H]8N)nn7)cc6)[nH]c5c4)[nH]c3c2)CC1 | 3.2e+08
6 | CN1CCN(c2ccc3nc(-c4ccc5nc(-c6ccc(OCCCCOCc7cn(C[C@H]8O[C@@H](O[C@@H]9[C@@H](O)[C@H](N)C[C@H](N)[C@H]9O[C@H]9O[C@H](CN)[C@@H](O)[C@H](O)[C@H]9N)[C@H](O)[C@@H]8O[C@H]8O[C@@H](CN)[C@@H](O)[C@H](O)[C@H]8N)nn7)cc6)[nH]c5c4)[nH]c3c2)CC1 | 7.4e+08
